Assay results published in patent US4758580A, “Inhibiting growth of tumors with certain substituted phenoxy dimethyl alkanoic acids, esters or salts” (Yamanouchi Pharmaceutical Co., Ltd., priority 1985, dated 1988).
Converted amounts (≈) assume the structure as drawn.

How the values were obtained:
L-1210 = assay: In vitro cytotoxicity against mouse tumor cells, L-1210; assay type: cell-based; settings: L1210, 72 h
Protocol: (§1) A suspension of cells in a culture medium was transferred into wells in a microplate in an amount of 1×10^5 cells/wall. Test sample diluted with a culture medium was added to the suspension in each well, and the mixture was incubated on the medium at 37° C. for 3 days in atmosphere of air containing 5% carbon dioxide. Thereafter, the incubated cells were recovered from the microplate and the number of live cells was counted by the dye exclusion test using a 0.5% solution of trypan blue and by using a hemocytomer.

MM-46 ascites tumor = assay: Anti-tumor test against mice mammary cancer MM-46 ascites tumor; assay type: in vivo, C3 H/He/CRJ mice
Protocol: MM-46 tumor cells, 1×10^6, on Day 7 after intraperitoneal transplantation to C3 H/He/CRJ mice (5 week age, male) of 10 mice each being grouped in one. The active component was intraperitoneally administered in a definite dose 24 hours after the transplantation according to the schedule shown in Table 5. An effect of tumor growth inhibition was evaluated by a percentage of the median survival time of the administered group versus that of the control group, according to the following equation.
(§2) T: median survival day of the administered group
(§3) C: median survival day of the control group

[1] = test system: Meth A (methylcholanthrene-induced cancer); assay: In vitro cytotoxicity against mouse tumor cells, Meth A; assay type: cell-based; settings: Meth-A, 72 h
Protocol: as §1

Ehrlich ascites tumor = assay: Anti-tumor effect against Ehrlich ascites tumor; assay type: in vivo, ddY/SLC mice; settings: 25 mg/kg i.p., 1-9 Days
Protocol: Ehlrich tumor cells, 1×10^6, on Day 7 after intraperitoneal transplantation to ddY/SLC mice were intraperitoneally transplanted to ddY/SLC mice (5 week age, male) of 10 mice each being grouped in one. The active component was intraperitoneally administered in a definite dose 24 hours after the transplantation according to the schedule shown in Table 4. An effect of tumor growth inhibition was evaluated by a percentage of the median survival day of the administered group versus that of the control group, according to the following equation.
as §2, §3

[2] = test system: liver cancer (MH-134) cells; assay: Inhibition of spontaneous metastasis (to the lymph node) of liver cancer (MH-134) cells in mice; assay type: in vivo, C3 H/He/SLC mice; settings: 20th day
Protocol: (a) Inhibition of spontaneous metastasis (to the lymph node) of liver cancer (MH-134) cells in mice
MH-134 tumor cells, 1×10^6, on Day 7 after intraperitoneal transplantation to C3 H/He/SLC mice were transplanted to the right leg. On the 11th day after the transplantation, the right leg portion wherein the cancer cells were transplanted were cut off. The test compounds were administered orally in a definite dose 24 hours after the transplantation. In order to confirm metastasis-inhibiting effect, on 20th day of the transplantation the mice were anatomised to observe the metastasis to the lymph node in the inguinal portion. [formula] Further, the weight of the lymph node metastasis tumor in the inguinal portion of anatomised mice was measured. [formula]

[3] = test system: KB (nasal cavity & pharynx cancer); assay: In vitro cytotoxicity against human tumor cells, KB; assay type: cell-based; settings: 72 h
Protocol: (§4) A suspension of cells in a culture medium was transferred into wells in a microplate in an amount of 5×10^4 cells/well. Test sample diluted with a culture medium was added to the suspension in each well, and the mixture was incubated at 37° C. for 3 days in an atmosphere of air containing 5% carbon dioxide. After skimming, sticking cells were dyed which crystalviolet for 10 minutes. After washing with water, 1% sodium lauryl sulfate solution was added to each well, and the absrobancy (optical density) at […] was measured. "% inhibition" was calculated from the following equation. [formula]

ACHN (kidney cancer) = assay: In vitro cytotoxicity against human tumor cells, ACHN; assay type: cell-based; settings: 72 h
Protocol: as §4

Ehrlich solid tumor = assay: Anti-tumor test against Ehrlich solid tumor; assay type: in vivo, ddY/SLC mice
Protocol: Ehrlich tumor cells, 2×10^6, on Day 7 after intraperitoneal transplantation to ddY/SLC mice were subcutaneously transplanted in the left abdomen of ddY/SLC mice (5 week age, male), 10 each grouped into one. The active component was intraperitoneally or orally administered in a definite dose 24 hours after the transplantation, according to the schedule shown in Table 1 (A), (B) or (C). An effect of inhibiting growth of tumor was compared, by measuring the long diameter and short diameter of the tumor on 14, 20 and 21 Days after the transplantation, calculating the tumor size (mm^2) and determining a tumor growth inhibition rate of the group administered with the active component to the control group according to the following equation:
Growth inhibition rate (%)=(C-T)/C×100
T: means tumor size (mm^2) in the active component-administered group
C: mean tumor size (mm^2) in the control group

Ehrlich (carcinoma) = assay: In vitro cytotoxicity against mouse tumor cells, Ehrlich; assay type: cell-based; settings: Ehrlich, 72 h
Protocol: as §1

Bowes (melanoma) = assay: In vitro cytotoxicity against human tumor cells, Bowes; assay type: cell-based; settings: 72 h
Protocol: as §4

MH 134 (liver cancer) = assay: In vitro cytotoxicity against mouse tumor cells, MH 134; assay type: cell-based; settings: MH 134, 72 h
Protocol: as §1

[4] = 6.25 mg/kg i.p., 1, 2, 3, 4 and 6 Days
[5] = 12.5 mg/kg i.p., 1, 2, 3, 4 and 6 Days
[6] = 25 mg/kg i.p., 1, 2, 3, 4 and 6 Days
[7] = 50 mg/kg oral, 1, 3, 5, 7, 9, 11, 13 and 15 days
[8] = 100 mg/kg oral, 1, 3, 5, 7, 9, 11, 13 and 15 days
[9] = Day 14, 2.5 mg/kg i.p., Days 1, 2, 3, 5 & 6
[10] = Day 14, 12.5 mg/kg i.p., Days 1, 2, 3, 4, 6, 7, 8, 9
[11] = Day 14, 25 mg/kg i.p., Days 1, 2, 3, 4 & 7
[12] = Day 14, 25 mg/kg i.p., Days 1, 2, 3, 4, 6, 7, 8, 9
[13] = Day 21, 2.5 mg/kg i.p., Days 1, 2, 3, 5 & 6
[14] = Day 21, 12.5 mg/kg i.p., Days 1, 2, 3, 4, 6, 7, 8, 9
[15] = Day 21, 25 mg/kg i.p., Days 1, 2, 3, 4 & 7
[16] = Day 21, 25 mg/kg i.p., Days 1, 2, 3, 4, 6, 7, 8, 9

## O=c1[nH]cc(F)c(=O)[nH]1 [5-Fluorouracil, reference compound]
L-1210
  IC50: 0.06 µg/mL (≈ 0.461 µM)
MM-46 ascites tumor; [4]
  Median Survival Day: 16.0 days
  Survivors (90 days): 0/10
  T/C (median survival): 213.3%
MM-46 ascites tumor; [5]
  Median Survival Day: 17.0 days
  Survivors (90 days): 0/10
  T/C (median survival): 226.7%
MM-46 ascites tumor; [6]
  Median Survival Day: 20.0 days
  Survivors (90 days): 0/10
  T/C (median survival): 266.7%
[1]
  IC50: 0.1 µg/mL (≈ 0.769 µM)
Ehrlich ascites tumor
  Median Survival Day: 24.5 days
  No. of 40-day Survivors: 0/8
  T/C (median survival): 163.3%
[2]; [7]
  Growth inhibition of the metastasis tumor: 48.7%
  Metastasis-inhibition rate: 17.7%
[2]; [8]
  Growth inhibition of the metastasis tumor: 74.2%
  Metastasis-inhibition rate: 41.2%
[3]
  IC50: 1.75 µg/mL (≈ 13.5 µM)
ACHN (kidney cancer)
  IC50: 0.1 µg/mL (≈ 0.769 µM)
Ehrlich solid tumor; [9]
  Growth Inhibition Rate: 42.9%
  Size of Tumor: 133.7 ± 61.1 mm^2
Ehrlich solid tumor; [10]
  Growth Inhibition Rate: 44.1%
  Size of Tumor: 142.6 ± 36.9 mm^2
Ehrlich solid tumor; [11]
  Growth Inhibition Rate: 40.0%
  Size of Tumor: 86.7 ± 35.1 mm^2
Ehrlich solid tumor; [12]
  Growth Inhibition Rate: 54.4%
  Size of Tumor: 116.3 ± 44.0 mm^2
Ehrlich solid tumor; [13]
  Growth Inhibition Rate: 42.4%
  Size of Tumor: 306.8 ± 166.8 mm^2
Ehrlich solid tumor; [14]
  Growth Inhibition Rate: 34.2%
  Size of Tumor: 280.6 ± 68.9 mm^2
Ehrlich solid tumor; [15]
  Growth Inhibition Rate: 57.5%
  Size of Tumor: 217.8 ± 126.2 mm^2
Ehrlich solid tumor; [16]
  Growth Inhibition Rate: 40.8%
  Size of Tumor: 252.3 ± 100.3 mm^2
Ehrlich (carcinoma)
  IC50: 0.05 µg/mL (≈ 0.384 µM)
Bowes (melanoma)
  IC50: 0.61 µg/mL (≈ 4.69 µM)
MH 134 (liver cancer)
  IC50: 0.009 µg/mL (≈ 0.0692 µM)
